Test results taken from ChEMBL document CHEMBL1157539, “Thousands of chemical starting points for antimalarial lead identification” (Nature, 2010).

These compounds were tested on Plasmodium falciparum (assay: GSK_TCMDC: Inhibition of Plasmodium falciparum 3D7 in whole erythrocytes, using parasite LDH activity as an index of growth.). Conditions: Plasmodium falciparum, 3D7.
Type: functional, organism-based
`COc1ccc2nccc(N/N=C/c3ccc([N+](=O)[O-])cc3)c2c1` showed an XC50 of 0.712 µM. With `CCN(CC)c1ccc(C(=O)Cn2ccc(=N)cc2)cc1` the XC50 was 0.998 µM. With `O=C(N[C@H]1CCN(Cc2ccc(OCCCN3CCCCC3)cc2)C1)c1ccc2ccccc2c1` the XC50 was 0.764 µM. For `CC(C)(C)c1nn(-c2ccccc2)c2[nH]c(=O)c(CNCc3ccc4c(c3)OCO4)cc12`, the XC50 was 1.05 µM. With `N=C(N)c1cc(Cl)cc(NC(=O)Nc2cc(Cl)cc(C(=N)N)c2)c1` the XC50 was 0.719 µM. Compound `COCCN(C)CCCOc1cc2c(cc1OC)ncn2-c1cc(OCc2ccccc2C(F)(F)F)c(C(N)=O)s1` has an XC50 of 0.71 µM. `Cn1cncc1-c1cc2c(Nc3ccc(OCc4ccccc4)cc3)ncnc2cn1` gave an XC50 of 0.268 µM. In the case of `COc1ccc(NC(=O)/C=C/c2ccccc2Cl)cc1OCCN1CCC(N2CCN(C)CC2)CC1`, the XC50 is reported as 0.487 µM. `COc1ccc2nc3cc(Cl)ccc3c(NCCc3ccccc3)c2c1` gave an XC50 of 0.95 µM. With `COc1cccc(CCNCc2ccc(-c3cccc(CNC4CCCC4)c3)cc2)c1` the XC50 was 0.734 µM. `CC(C)(C)c1ccc(/C=C/C(=O)NCCCCCN2CCC(c3c[nH]c4ccccc34)CC2)cc1` was tested, and the XC50 was 1.09 µM. For `CCOC(=O)c1ccc(NC(=O)Nc2ccc(-c3cccc(-c4nc5cc(F)ccc5[nH]4)c3)cc2)cc1`, the XC50 was 0.122 µM. In the case of `Oc1cc(Nc2ccnc3cc(-c4ccc(CN5CCCCC5)o4)ccc23)c(Cl)cc1F`, the XC50 is reported as 0.122 µM. Work on `N=C(N)NN=CC(=O)Nc1cccc(C(F)(F)F)c1` yielded an XC50 of 1 µM. `Cc1cc(Nc2ccc(Oc3ccc(Cl)cc3)cc2)nc(N)n1` showed an XC50 of 0.616 µM. `CCN(CC)CCCSc1ccc(-c2ccc(SCCCN(CC)CC)cc2)cc1` gave an XC50 of 1.16 µM. Compound `C=CCOC(=O)N1CCC(CNCc2cccc(-c3ccc(-c4nc5cccc(C)c5[nH]4)cc3)c2)C1` (stereo not given) has an XC50 of 0.251 µM. `COc1ccc(NC(=O)[C@H](Cc2ccccc2)Nc2cc(C)nc(NCC3CCCCC3)n2)cc1` showed an XC50 of 0.678 µM. `COc1ccc2c(NN=Cc3cccc(C)n3)ccnc2c1` showed an XC50 of 0.761 µM. For `CC(=O)c1nccc(C)c1N`, the XC50 was 0.929 µM. Work on `Cc1cccc(OCC(=O)Nc2cccc(NC(=O)COc3cccc(C)c3)n2)c1` yielded an XC50 of 0.671 µM. Compound `CC(Cc1ccc([N+](=O)[O-])cc1)NCC(O)c1cccc(C(F)(F)F)c1` (stereo not given) has an XC50 of 0.898 µM. Compound `CN(C)CCC(O)(c1ccc(Br)cc1)c1cccnc1` (stereo not given) has an XC50 of 0.831 µM. Compound `Cc1cc(NC2CCN(CC3CCCCC3)C2)nc(Nc2ccc(Br)cc2)n1` (stereo not given) has an XC50 of 0.566 µM. Work on `Cc1cc(NCCC(=O)Nc2ccccc2)nc(NCC2CCCCC2)n1` yielded an XC50 of 0.841 µM. `CN1CCCN(Cc2ccc(-c3cccc(NC(=O)c4cccc(F)c4)c3)cc2)CC1` was tested, and the XC50 was 0.98 µM. `COc1ccc(-c2cccc(CNC3CCN(CC4Cn5c(=O)ccc6ccc(F)c4c65)CC3)c2)cc1` (stereo not given) was tested, and the XC50 was 1.09 µM. `COc1ccc2ncc(C#N)c(CCN3CCC(NCc4ccc5c(n4)NC(=O)CS5)CC3)c2n1` gave an XC50 of 0.836 µM. For `COc1cc2ncnc(Nc3ccc(OCc4ccccc4)c(OCc4ccccc4)c3)c2cc1OC`, the XC50 was 0.738 µM. Work on `CC(C)N(Cc1cnc(N)c(C#N)n1)c1ccc(Cl)c(Cl)c1` yielded an XC50 of 0.844 µM. `COc1cc(Cc2cnc(N)nc2N)cc(OCCNC(=O)OCc2ccccc2)c1OC` was tested, and the XC50 was 0.923 µM. `O=C(Nc1cccc(CN2CCCN(Cc3cccc(O)c3)CC2)c1)c1ccc(-c2ccccc2)cc1` showed an XC50 of 0.641 µM. With `CC(=O)N[C@@H]1c2cc(C(C)=O)ccc2OC(C)(C)[C@@H]1O` the XC50 was 0.983 µM. `c1ccc(C(OCCC2CCN(Cc3cccc4cccnc34)CC2)c2ccccc2)cc1` was tested, and the XC50 was 0.874 µM. `CS(=O)(=O)Nc1ccc2[nH]cc(C3CCN(CC4CCC(NC(=O)/C=C/c5ccccc5Cl)CC4)CC3)c2c1` (stereo not given) gave an XC50 of 0.793 µM. Work on `O=C(NCCCCN1CCN(c2cccc3c2OCCO3)CC1)c1ccc(NC(=O)c2cc(Cl)cc(Cl)c2)cc1` yielded an XC50 of 0.225 µM. With `O=C(Nc1ccc(F)c(C(F)(F)F)c1)N[C@H]1CCN(CCCCCNC(=O)C2CC2c2ccc(Cl)c(Cl)c2)C1` (stereo not given in full) the XC50 was 0.157 µM. Compound `CCCCOc1ccc(/C=C/c2ccc(-c3c(C)[nH]c(C)c(Cl)c3=O)s2)cc1` has an XC50 of 0.395 µM. `CCOC(=O)c1ccc(NC(=O)Nc2ccc(-c3cccc(-c4nc5ccccc5[nH]4)c3)cc2)cc1` gave an XC50 of 0.145 µM. With `CS(=O)(=O)Nc1ccc2[nH]cc(C3CCN(CC4CCC(NC(=O)/C=C/c5ccc(Cl)c(Cl)c5)CC4)CC3)c2n1` (stereo not given) the XC50 was 0.78 µM.
